Assay results reported in US10703727B2, “Method for preparing substituted 3-(2-anilino-1-cyclohexyl-1H-benzimidazol-5-yl)propanoic acid derivatives” (Bayer Pharma Aktiengesellschaft, priority 2015, dated 2020).

Key:
IDH1 R132H [1] = biological target: T1, IDH1 R132H (Homo sapiens, UniProt O75874, R132H); assay: Inhibition of IDH1 R132H in a biochemical assay (NADPH consumption, luminescence); settings: 1.5 nM enzyme, 1 μM NADPH, 250 μM α-KG, 32° C., 30 minutes
Experimental: NADPH consumption is determined by luminescence.
Test compounds were assayed in a concentration range of 0.002 to 10 μM. The final DMSO concentration was 2.4%.
The luminescence was determined using a luminescence reader (10 seconds measurement time, 1 second integration period, 30% sensitivity). The drop in luminescence is proportional to the activity of mIDH1. IC50 values were determined by interpolation from plots of the relative luminescence against the inhibitor concentration.

IDH1 R132H [2] = biological target: T1, IDH1 R132H; assay: Cellular assay: 2-HG in medium of LN229 R132H cells overexpressing mutated IDH; assay type: cell-based; settings: 24 hours
Experimental: Concentrations of (2R)-2-hydroxyglutarate (2HG) were determined in a medium of a cell line having an overexpession of the mutated isocitrate dehydrogenase protein. mIDH catalyses the NADPH-dependent reduction of alpha-ketoglutarate to 2-HG. […] The cells were obtained using trypsin and placed in 96-well titre plates. The cells were incubated overnight at 37° C. in 5% CO2. On the next day, test compounds were added to the cells. The final concentration of DMSO was 0.1% and DMSO controls were used. The titre plates were then placed in an incubator for 24 hours.
2-HG was measured using the method published by Balss et al. (Acta Neuropathol (2012) 124: 883-891). HClO4 was added to each well and the titre plates were centrifuged. Aliquots were removed and incubated with hydroxyglutarate dehydrogenase (HGDH), diaphorase, NAD+ and resazurin. The conversion of resazurin to resorufin was determined by fluorescence spectroscopy at Ex 540 nm Em 600 nm. The increase in the fluorescence signal is proportional to formation of 2-HG. IC50 values were determined by interpolation from plots of the relative fluorescence against the inhibitor concentration.

T1 sequence (O75874 whole entry R132H): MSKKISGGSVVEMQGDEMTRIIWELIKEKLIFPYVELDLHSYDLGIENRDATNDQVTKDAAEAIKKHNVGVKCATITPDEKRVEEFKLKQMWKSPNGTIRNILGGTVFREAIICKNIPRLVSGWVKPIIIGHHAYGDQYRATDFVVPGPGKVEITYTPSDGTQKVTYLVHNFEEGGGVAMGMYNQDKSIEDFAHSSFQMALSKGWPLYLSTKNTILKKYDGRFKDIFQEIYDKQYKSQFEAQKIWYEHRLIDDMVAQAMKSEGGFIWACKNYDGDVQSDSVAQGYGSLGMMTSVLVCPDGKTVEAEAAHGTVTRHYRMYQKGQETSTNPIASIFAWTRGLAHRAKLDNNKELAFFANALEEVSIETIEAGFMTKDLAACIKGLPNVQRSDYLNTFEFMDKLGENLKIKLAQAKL

Compound	IC50 (IDH1 R132H [1]) [nM]	IC50 (IDH1 R132H [2]) [nM]
C[C@@H]1C[C@H](n2c(Nc3ccc(C(F)(F)F)cc3)nc3cc(CCC(=O)O)ccc32)CC(C)(C)C1 (racemic) [(±) 3-(2-{[4-(Trifluoromethyl)phenyl]amino}-1-[(cis)-3,3,5-trimethylcyclohexyl]-1H-benzimidazol-5-yl)propanoic acid]	40	70
CC(C)c1ccc(Nc2nc3cc(CCC(=O)O)ccc3n2[C@H]2C[C@@H](C)CC(C)(C)C2)cc1 (racemic) [(±) 3-(2-{[4-(Propan-2-yl)phenyl]amino}-1-[(cis)-3,3,5-trimethylcyclohexyl]-1H-benzimidazol-5-yl)propanoic acid]	20	80
CC(C)Oc1ccc(Nc2nc3cc(CCC(=O)O)ccc3n2[C@H]2C[C@@H](C)CC(C)(C)C2)cc1 (racemic) [(±) 3-(2-{[4-(Propan-2-yloxy)phenyl]amino}-1-[(cis)-3,3,5-trimethylcyclohexyl]-1H-benzimidazol-5-yl)propanoic acid]	60	400
CC1(C)CCCC(n2c(Nc3ccc(OC(F)(F)F)cc3)nc3cc(CCC(=O)O)ccc32)C1 (racemic) [(±) 3-(1-[3,3-dimethylcyclohexyl]-2-{[4-(trifluoromethoxy)phenyl]amino}-1H-benzimidazol-5-yl)propanoic acid]	60	850
CC(C)c1ccc(Nc2nc3cc(CCC(=O)O)ccc3n2C2CCCC(C)(C)C2)cc1 (racemic) [(±) 3-(1-[3,3-Dimethylcyclohexyl]-2-{[4-(propan-2-yl)phenyl]amino}-1H-benzimidazol-5-yl)propanoic acid]	50	400
COC(=O)CCc1ccc2c(c1)nc(Nc1ccc(C(C)C)cc1)n2[C@H]1C[C@@H](C)CC(C)(C)C1 (racemic) [(±) Methyl 3-(2-{[4-(propan-2-yl)phenyl]amino}-1-[(cis)-3,3,5-trimethylcyclohexyl]-1H-benzimidazol-5-yl)propanoate]	170	90
CC(C)Oc1ccc(Nc2nc3cc(CCC(=O)O)ccc3n2C2CCCC(C)(C)C2)cc1 (racemic) [(±) 3-(1-[3,3-Dimethylcyclohexyl]-2-{[4-(propan-2-yloxy)phenyl]amino}-1H-benzimidazol-5-yl)propanoic acid]	300	850
COC(=O)CCc1ccc2c(c1)nc(Nc1ccc(OC(F)(F)F)cc1)n2[C@H]1C[C@@H](C)CC(C)(C)C1 (racemic) [(±) Methyl 3-(2-{[4-(trifluoromethoxy)phenyl]amino}-1-[(cis)-3,3,5-trimethylcyclohexyl]-1H-benzimidazol-5-yl)propanoate]	300	300
